Data on 22 compounds can be found in patent US11787762B2, “Tetralin and tetrahydroquinoline compounds as inhibitors of HIF-2alpha” (ARCUS BIOSCIENCES, INC., priority 2020, dated 2023).

A value given as a limit tells only on which side of the number the result lay.

T1 sequence (Q99814 whole entry): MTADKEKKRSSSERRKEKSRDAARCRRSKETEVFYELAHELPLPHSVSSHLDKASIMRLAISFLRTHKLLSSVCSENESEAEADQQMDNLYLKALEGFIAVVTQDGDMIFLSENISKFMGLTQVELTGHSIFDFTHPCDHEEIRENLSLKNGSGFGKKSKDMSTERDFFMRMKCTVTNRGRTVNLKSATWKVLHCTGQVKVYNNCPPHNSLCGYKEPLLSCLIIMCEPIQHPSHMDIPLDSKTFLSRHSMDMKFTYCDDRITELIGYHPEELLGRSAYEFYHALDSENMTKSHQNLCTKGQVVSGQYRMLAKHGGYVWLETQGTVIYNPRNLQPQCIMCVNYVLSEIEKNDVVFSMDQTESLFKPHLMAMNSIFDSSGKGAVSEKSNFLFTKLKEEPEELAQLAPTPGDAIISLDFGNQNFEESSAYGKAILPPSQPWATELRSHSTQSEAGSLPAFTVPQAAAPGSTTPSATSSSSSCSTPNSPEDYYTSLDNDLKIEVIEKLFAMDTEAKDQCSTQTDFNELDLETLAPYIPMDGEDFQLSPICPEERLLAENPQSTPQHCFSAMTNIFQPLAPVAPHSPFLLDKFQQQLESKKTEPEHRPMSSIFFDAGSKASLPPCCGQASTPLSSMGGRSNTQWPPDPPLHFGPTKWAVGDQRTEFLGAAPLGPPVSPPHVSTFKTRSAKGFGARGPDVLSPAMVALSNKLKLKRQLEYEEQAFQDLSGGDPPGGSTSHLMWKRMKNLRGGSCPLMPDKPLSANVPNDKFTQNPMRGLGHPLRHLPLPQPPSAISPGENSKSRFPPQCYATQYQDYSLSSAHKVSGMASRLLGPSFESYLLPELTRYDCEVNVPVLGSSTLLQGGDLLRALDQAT

This experiment concerns the target T1, HIF-2α (Homo sapiens, UniProt Q99814).
T1 construct: host or cells: 786-O cells stably transduced with Cignal Lenti HIF Luc Reporter (only the reporter was introduced, not HIF-2α)
The experiment can be described thus: HIF-2α luciferase reporter assay in HIF-Luc-786-O cells. Format: cell-based. Conditions: Table 3, 20 hours incubation. The protocol: Generation of HIF-2α Luciferase 786-O Cell Line:
Stable cell lines were generated by transducing 786-O cells (ATCC, CRL-1932) with Cignal Lenti HIF Luc Reporter lentivirus (CLS-007 L, Qiagen) according to the manufacturer's guidelines. In brief, 0.3×10^6 786-0 cells were transduced with lentivirus at a Multiplicity of Infection (MOI) of 25 for 24 hours. After transduction, cells were replenished with fresh RPMI 1640 Medium (Cat. No. 11875085, Thermo Fisher,) supplemented with 10% FBS (Cat. No. A3160502, Gibco), 2 mM GlutaMax (Cat. No. 35050-061, Invitrogen) and 100 units of penicillin and 100 μg of streptomycin/mL (Cat. No 15070063, Thermo Fisher) for another 24 hours. Antibiotic selection was performed in cell media containing 4 μg/mL of Puromycin. After 7 days of antibiotic selection, stable pools of surviving cells were expanded and used in a luciferase reporter assay.
HIF-2α Luciferase Reporter Assay:
On day one, 20 uL of HIF-Luc-786-0 cells in OptiMem (Cat. No. 31985088, Thermo Fisher) were seeded into each well of a 384 well white opaque plate (Corning 3570) and incubated at 37° C. and 5% CO2. Twenty microliters of 2× test compounds in OptiMem were added to cells after 4 hours of incubation. Final assay conditions comprised 20,000 cells per well in 1% DMSO with test compound concentrations ranging from 50 uM to 0 uM. After 20 hours incubation at 37° C. and 5% CO2, luciferase activity was determined using ONE-Glo Luciferase Assay Reagent (E6110, Promega) following the manufacture's recommended procedure. Briefly, 40 uL of ONE-Glo luciferase reagents were added to each well and luciferase signals were measured using an Envision 2102 Multilabel Reader. Percentage maximum activity in each test well was calculated based on DMSO (maximum activity) and no cell control wells (baseline activity). The IC50 values of the test compounds were determined from compound dose response curves fitted using a standard four parameter fit equation.
Usually IC50 stands for the concentration that gives 50% inhibition. Higher therefore signals weaker potency in that assay. Compound `Cc1nc(N)cnc1-c1ccc([C@H]2CC[C@H](F)c3cc(F)cc(C#N)c32)c2c1[C@H](O)C(F)(F)C2` [Example 179, (5S,8R)-8-[(1S)-7-(5-amino-3-methylpyrazin-2-yl)-2,2-difluoro-1-hydroxy-1,3-dihydroinden-4-yl]-3,5-difluoro-5,6,7,8-tetrahydronaphthalene-1-carbonitrile] displayed an IC50 of less than 100 nM.
`N#Cc1cc(F)cc2c1[C@@H](c1ccc(-c3cnc(C(N)=O)s3)c3c1CC(F)(F)[C@H]3O)CC[C@@H]2F` [Example 180, 5-[(3S)-7-[(1R,4S)-8-cyano-4,6-difluoro-1,2,3,4-tetrahydronaphthalen-1-yl]-2,2-difluoro-3-hydroxy-1,3-dihydroinden-4-yl]-1,3-thiazole-2-carboxamide] registered an IC50 of less than 100 nM.
Compound `N#Cc1cc(F)cc2c1[C@@H](c1ccc(-c3ncncc3N)c3c1CC(F)(F)[C@H]3O)CC[C@@H]2F` [Example 181, (5S,8R)-8-[(1S)-7-(5-aminopyrimidin-4-yl)-2,2-difluoro-1-hydroxy-1,3-dihydroinden-4-yl]-3,5-difluoro-5,6,7,8-tetrahydronaphthalene-1-carbonitrile] had an IC50 of 100 to 1000 nM.
`Cn1cnc(-c2ccc([C@H]3CC[C@H](F)c4cc(F)cc(C#N)c43)c3c2[C@H](O)C(F)(F)C3)n1` [Example 182, (5S,8R)-8-[(1S)-2,2-difluoro-1-hydroxy-7-(1-methyl-1,2,4-triazol-3-yl)-1,3-dihydroinden-4-yl]-3,5-difluoro-5,6,7,8-tetrahydronaphthalene-1-carbonitrile] yielded an IC50 of 100 to 1000 nM.
As for `Cc1c(-c2ccc([C@H]3CC[C@H](F)c4cc(F)cc(C#N)c43)c3c2[C@H](O)C(F)(F)C3)nnn1C` [Example 183, (5S,8R)-8-[(1S)-7-(1,5-dimethyltriazol-4-yl)-2,2-difluoro-1-hydroxy-1,3-dihydroinden-4-yl]-3,5-difluoro-5,6,7,8-tetrahydronaphthalene-1-carbonitrile], the figure is 100 to 1000 nM; as for `N#Cc1cc(F)cc2c1[C@@H](c1ccc(-c3cccnc3C#N)c3c1CC(F)(F)[C@H]3O)CC[C@@H]2F` [Example 184, 3-[(3S)-7-[(1R,4S)-8-cyano-4,6-difluoro-1,2,3,4-tetrahydronaphthalen-1-yl]-2,2-difluoro-3-hydroxy-1,3-dihydroinden-4-yl]pyridine-2-carbonitrile], less than 100 nM; as for `Cc1ccc(-c2ccc([C@H]3CC[C@H](F)c4cc(F)cc(C#N)c43)c3c2[C@H](O)C(F)(F)C3)c(N)n1` [Example 185, (5S,8R)-8-[(1S)-7-(2-amino-6-methylpyridin-3-yl)-2,2-difluoro-1-hydroxy-1,3-dihydroinden-4-yl]-3,5-difluoro-5,6,7,8-tetrahydronaphthalene-1-carbonitrile], less than 100 nM.
Compound `N#Cc1cc(F)cc2c1[C@@H](c1ccc(-c3nccnc3N)c3c1CC(F)(F)[C@H]3O)CC[C@@H]2F` [Example 186, (5S,8R)-8-[(1S)-7-(3-aminopyrazin-2-yl)-2,2-difluoro-1-hydroxy-1,3-dihydroinden-4-yl]-3,5-difluoro-5,6,7,8-tetrahydronaphthalene-1-carbonitrile] yielded an IC50 of less than 100 nM.
Consider `N#Cc1cc(F)cc2c1[C@@H](c1ccc(-c3cccc4cn[nH]c34)c3c1CC(F)(F)[C@H]3O)CC[C@@H]2F` [Example 187, (5S,8R)-8-[(1S)-2,2-difluoro-1-hydroxy-7-(1H-indazol-7-yl)-1,3-dihydroinden-4-yl]-3,5-difluoro-5,6,7,8-tetrahydronaphthalene-1-carbonitrile], for which the IC50 is less than 100 nM.
In the case of `Cc1nc(N)sc1-c1ccc([C@H]2CC[C@H](F)c3cc(F)cc(C#N)c32)c2c1[C@H](O)C(F)(F)C2` [Example 188, (5S,8R)-8-[(1S)-7-(2-amino-4-methyl-1,3-thiazol-5-yl)-2,2-difluoro-1-hydroxy-1,3-dihydroinden-4-yl]-3,5-difluoro-5,6,7,8-tetrahydronaphthalene-1-carbonitrile] it was 100 to 1000 nM; in that of `N#Cc1cc(F)cc2c1[C@@H](c1ccc(-c3cccc4ncsc34)c3c1CC(F)(F)[C@H]3O)CC[C@@H]2F` [Example 189, (5S,8R)-8-[(1S)-7-(1,3-benzothiazol-7-yl)-2,2-difluoro-1-hydroxy-1,3-dihydroinden-4-yl]-3,5-difluoro-5,6,7,8-tetrahydronaphthalene-1-carbonitrile], less than 100 nM.
Regarding `N#Cc1cc(F)cc2c1[C@@H](c1ccc(-c3cccc4scnc34)c3c1CC(F)(F)[C@H]3O)CC[C@@H]2F` [Example 190, (5S,8R)-8-[(1S)-7-(1,3-benzothiazol-4-yl)-2,2-difluoro-1-hydroxy-1,3-dihydroinden-4-yl]-3,5-difluoro-5,6,7,8-tetrahydronaphthalene-1-carbonitrile], the IC50 was in the range of 100 to 1000 nM.
As for `N#Cc1cc(F)cc2c1[C@@H](c1ccc(-c3scnc3CO)c3c1CC(F)(F)[C@H]3O)CC[C@@H]2F` [Example 191, (5S,8R)-8-[(1S)-2,2-difluoro-1-hydroxy-7-[4-(hydroxymethyl)-1,3-thiazol-5-yl]-1,3-dihydroinden-4-yl]-3,5-difluoro-5,6,7,8-tetrahydronaphthalene-1-carbonitrile], the 50% inhibitory concentration (IC50) was less than 100 nM.
Compound `Cc1scnc1-c1ccc([C@H]2CC[C@H](F)c3cc(F)cc(C#N)c32)c2c1[C@H](O)C(F)(F)C2` [Example 192, (5S,8R)-8-[(1S)-2,2-difluoro-1-hydroxy-7-(5-methyl-1,3-thiazol-4-yl)-1,3-dihydroinden-4-yl]-3,5-difluoro-5,6,7,8-tetrahydronaphthalene-1-carbonitrile] had a 50% inhibitory concentration (IC50) of less than 100 nM.
As for `Cc1nc(C)c(-c2ccc([C@H]3CC[C@H](F)c4cc(F)cc(C#N)c43)c3c2[C@H](O)C(F)(F)C3)s1` [Example 193, (5S,8R)-8-[(1S)-7-(2,4-dimethyl-1,3-thiazol-5-yl)-2,2-difluoro-1-hydroxy-1,3-dihydroinden-4-yl]-3,5-difluoro-5,6,7,8-tetrahydronaphthalene-1-carbonitrile], the half-maximal inhibitory concentration (IC50) was less than 100 nM.
Compound `N#Cc1cc(F)cc2c1[C@@H](c1ccc(-c3ccc(F)cc3N)c3c1CC(F)(F)[C@H]3O)CC[C@@H]2F` [Example 194, (5S,8R)-8-[(1S)-7-(2-amino-4-fluorophenyl)-2,2-difluoro-1-hydroxy-1,3-dihydroinden-4-yl]-3,5-difluoro-5,6,7,8-tetrahydronaphthalene-1-carbonitrile] showed a half-maximal inhibitory concentration (IC50) of less than 100 nM.
As for `Cc1ccc(-c2ccc([C@H]3CC[C@H](F)c4cc(F)cc(C#N)c43)c3c2[C@H](O)C(F)(F)C3)c(N)c1` [Example 195, (5S,8R)-8-[(1S)-7-(2-amino-4-methylphenyl)-2,2-difluoro-1-hydroxy-1,3-dihydroinden-4-yl]-3,5-difluoro-5,6,7,8-tetrahydronaphthalene-1-carbonitrile], the figure is less than 100 nM; as for `N#Cc1cc(F)cc2c1[C@@H](c1ccc(-c3c(N)cccc3F)c3c1CC(F)(F)[C@H]3O)CC[C@@H]2F` [Example 196, (5S,8R)-8-[(1S)-7-(2-amino-6-fluorophenyl)-2,2-difluoro-1-hydroxy-1,3-dihydroinden-4-yl]-3,5-difluoro-5,6,7,8-tetrahydronaphthalene-1-carbonitrile], less than 100 nM; as for `N#Cc1ccc(-c2ccc([C@H]3CC[C@H](F)c4cc(F)cc(C#N)c43)c3c2[C@H](O)C(F)(F)C3)c(N)c1` [Example 197, (5S,8R)-8-[(1S)-7-(2-amino-4-cyanophenyl)-2,2-difluoro-1-hydroxy-1,3-dihydroinden-4-yl]-3,5-difluoro-5,6,7,8-tetrahydronaphthalene-1-carbonitrile], less than 100 nM.
Turning to `Cc1nc(S(C)(=O)=O)ccc1-c1ccc([C@H]2CC[C@H](F)c3cc(F)cc(C#N)c32)c2c1[C@H](O)C(F)(F)C2` [Example 198, (5S,8R)-8-[(1S)-2,2-difluoro-1-hydroxy-7-(2-methyl-6-methylsulfonylpyridin-3-yl)-1,3-dihydroinden-4-yl]-3,5-difluoro-5,6,7,8-tetrahydronaphthalene-1-carbonitrile], the 50% inhibitory concentration (IC50) is 100 to 1000 nM.
`N#Cc1cc(F)cc2c1[C@@H](c1ccc(-n3ccnc3)c3c1CC(F)(F)[C@H]3O)CC[C@@H]2F` [Example 199, (5S,8R)-8-[(1S)-2,2-difluoro-1-hydroxy-7-imidazol-1-yl-1,3-dihydroinden-4-yl]-3,5-difluoro-5,6,7,8-tetrahydronaphthalene-1-carbonitrile] returned an IC50 of less than 100 nM.
For the compound `N#Cc1cc(F)cc2c1[C@@H](c1ccc(Nc3ccccn3)c3c1CC(F)(F)[C@H]3O)CC[C@@H]2F` [Example 200, (5S,8R)-8-[(1S)-2,2-difluoro-1-hydroxy-7-(pyridin-2-ylamino)-1,3-dihydroinden-4-yl]-3,5-difluoro-5,6,7,8-tetrahydronaphthalene-1-carbonitrile], the IC50 lay within 100 to 1000 nM.
